Measurements: patent publication US20120295920A1, “5-AMINO-4-HYDROXYPENTOYL AMIDES” (priority 2009, published 2012)
Read-outs that look alike come from different tables or passages of the source.

What was measured:
[1] = test system: HIV-1 wild-type strain; assay: General antiviral assay, cell-based virus replication in MT4-LTR-EGFP cells, wild-type strain; details: wild-type strain IIIB, MT4-LTR-EGFP cells
Procedure, shortened: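 HIV LTR-driven EGFP reporter MT4 cells (150,000 cells/ml) infected at MOI 0.0025 with or without inhibitor at various concentrations. Read-out either GFP fluorescence on day 3 post-infection or resazurin cell viability on day 4.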

[2] = General toxicity assay on mock-infected MT4 cells with CMV-EGFP reporter (CC50); assay type: cell-based; details: human
[3] = test system: HIV-1 IIIB; assay: 50% HS-Rezazurin: antiviral assay in the presence of 50% human serum, MT-4 cells, resazurin cell viability; assay type: cell-based
Procedure, shortened: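 MT-4 cells infected with HIV-1 IIIB (MOI 0.001 to 0.01 CCID50/cell) for 1 h, washed, then plated onto serial compound dilutions in 50% human serum (10% FCS alternative). After 4 days, EC50 derived from resazurin cell viability.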

[4] = test system: HIV-1 Strain A (M046I, I084V); assay: microbe, parasite or virus in culture; assay type: cell-based
Procedure, shortened: (§1)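 MT4 cells stably carrying an HIV LTR-driven EGFP reporter (150,000 cells/ml) were infected at MOI 0.0025 with or without inhibitor dilutions. Replication was read either as GFP fluorescence on day 3 post-infection or as cell viability by resazurin on day 4.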

[5] = test system: HIV-1 Strain B (M046I, I050V); assay: microbe, parasite or virus in culture; assay type: cell-based
Procedure, shortened: as §1

[6] = test system: HIV-1 Strain C (G048G/V, V082A); assay: microbe, parasite or virus in culture; assay type: cell-based
Procedure, shortened: as §1

[7] = test system: mock-infected MT4 cells; assay: General toxicity assay on mock-infected MT4 cells with CMV-EGFP reporter (CC50); assay type: cell-based
[8] = mock-infected MT4 cells with CMV-EGFP reporter, read-out: TOX-MT4CMV (CC50)
[9] = Human immunodeficiency virus 1, IIIB, MT4, 96 h
[10] = Human immunodeficiency virus 1, read-out: A EC50
[11] = Human immunodeficiency virus 1, read-out: B EC50
[12] = Human immunodeficiency virus 1, read-out: C EC50
[13] = MT4LTR cells, read-out: TOX-MT4LTR (CC50)
[14] = clinical isolate Strain A, read-out: A EC50
[15] = clinical isolate Strain B, read-out: B EC50
[16] = clinical isolate Strain C, read-out: C EC50

**Q.** What does the source list for `COC(=O)N[C@H](C(=O)N[C@@H](Cc1ccc(-c2cnc(C(C)C)s2)cc1)[C@@H](O)C[C@@H](Cc1ccccc1F)C(=O)N[C@H]1c2cc(Cl)ccc2OC[C@H]1O)C(C)(C)C` [Compound 32]?
**A.** EC50 ([1]; Human immunodeficiency virus 1): 5.9 nM; CC50 [2, 8]: 2200 nM; EC50 [3, 9]: 28.6 nM; EC50 [4, 10]: 5 nM; EC50 [5, 11]: 3.7 nM; EC50 [6, 12]: 3.1 nM

**Q.** Which EC50 ([1]; Human immunodeficiency virus 1) does the source give for `COC(=O)N[C@H](C(=O)N[C@@H](Cc1ccc(-c2cc(C)nc(C)c2)cc1)[C@@H](O)C[C@@H](Cc1cccc(Cl)c1)C(=O)N[C@H]1c2ccccc2OC[C@H]1O)C(C)(C)C` [Compound 4] here?
**A.** 5.6 nM

**Q.** And the CC50 [2, 8]?
**A.** > 32000 nM

**Q.** And the EC50 [3, 9]?
**A.** 31.2 nM

**Q.** What about the EC50 [4, 10] of the same compound?
**A.** 3.9 nM

**Q.** And the EC50 [5, 11]?
**A.** 3.9 nM

**Q.** What about the EC50 [6, 12] of the same compound?
**A.** 2.7 nM

**Q.** With `COC(=O)N[C@H](C(=O)N[C@@H](Cc1ccc(-c2ccc(N(C)C)nc2)cc1)[C@@H](O)C[C@@H](Cc1ccccc1F)C(=O)N[C@H]1c2cc(F)cc(Cl)c2OC[C@H]1O)C(C)(C)C` [Compound 52] as the compound, how does the melting point read?
**A.** 255.44 °C

**Q.** And the EC50 ([1]; Human immunodeficiency virus 1)?
**A.** 1.8 nM

**Q.** What about the CC50 [2, 13] of the same compound?
**A.** > 32000 nM

**Q.** What about the EC50 [3, 9] of the same compound?
**A.** 6.2 nM

**Q.** And the EC50 [4, 10]?
**A.** 1.2 nM

**Q.** And the EC50 [5, 11]?
**A.** 0.9 nM

**Q.** What about the EC50 [6, 12] of the same compound?
**A.** 0.7 nM

**Q.** With `CN(C)c1ccc(-c2ccc(C[C@H](NC(=O)[C@@H](NC(=O)C3(C#N)CC3)C(C)(C)C)[C@@H](O)C[C@@H](Cc3ccccc3F)C(=O)N[C@H]3c4cc(F)ccc4OC[C@H]3O)cc2)cn1` [Compound 53] as the compound, how does the EC50 ([1]; Human immunodeficiency virus 1) read?
**A.** 2.3 nM

**Q.** What about the CC50 [2, 13] of the same compound?
**A.** > 32000 nM

**Q.** What about the EC50 [3, 9] of the same compound?
**A.** 9.5 nM

**Q.** What about the EC50 [4, 10] of the same compound?
**A.** 4.1 nM

**Q.** And the EC50 [5, 11]?
**A.** 2 nM

**Q.** What about the EC50 [6, 12] of the same compound?
**A.** 2 nM

**Q.** With `COC(=O)N[C@H](C(=O)N[C@@H](Cc1ccc(-c2ccc(OC)nc2)cc1)[C@@H](O)C[C@@H](Cc1cccc(OC(F)(F)F)c1)C(=O)N[C@H]1c2cc(F)ccc2OC[C@H]1O)C(C)(C)C` [Compound 64] as the compound, how does the EC50 ([1]; Human immunodeficiency virus 1) read?
**A.** 2.6 nM

**Q.** And the CC50 [2, 13]?
**A.** > 32000 nM

**Q.** And the EC50 [3, 9]?
**A.** 15.1 nM

**Q.** And the EC50 [4, 10]?
**A.** 3 nM

**Q.** What about the EC50 [5, 11] of the same compound?
**A.** 1.6 nM

**Q.** What about the EC50 [6, 12] of the same compound?
**A.** 1.3 nM

**Q.** Which EC50 ([1]; Human immunodeficiency virus 1) does the source give for `CNC(=O)[C@@H](NC(=O)[C@H](Cc1ccccc1F)C[C@H](O)[C@H](Cc1ccc(-c2ccc(N(C)C)nc2)cc1)NC(=O)[C@@H](NC(=O)OC)C(C)(C)C)C(C)(C)C` [Compound 90] here?
**A.** 4.7 nM

**Q.** What about the CC50 [2, 8] of the same compound?
**A.** > 32000 nM

**Q.** What about the EC50 [3, 9] of the same compound?
**A.** 13.6 nM

**Q.** What about the EC50 [4, 10] of the same compound?
**A.** 4.8 nM

**Q.** What about the EC50 [5, 11] of the same compound?
**A.** 2.6 nM

**Q.** What about the EC50 [6, 12] of the same compound?
**A.** 2.8 nM

**Q.** What does the source list for `COC(=O)N[C@H](C(=O)N[C@@H](Cc1ccc(-c2ccc(OC)nc2)cc1)[C@@H](O)C[C@@H](Cc1ccccc1F)C(=O)N[C@H]1c2ccsc2CC[C@H]1O)C(C)(C)C` [Compound 93]?
**A.** EC50 ([1]; Human immunodeficiency virus 1): 1.3 nM; CC50 [2, 13]: > 32000 nM; CC50 [2, 8]: > 32000 nM; EC50 [3, 9]: 3.5 nM; EC50 [4, 10]: 0.8 nM; EC50 [5, 11]: 0.6 nM; EC50 [6, 12]: 0.4 nM

**Q.** With `CN(C)c1ccc(-c2ccc(C[C@H](NC(=O)O[C@H]3CO[C@H]4OCC[C@H]43)[C@@H](O)C[C@@H](Cc3ccccc3F)C(=O)N[C@H]3c4cc(Cl)ccc4OC[C@H]3O)cc2)cn1` [Compound 79] as the compound, how does the EC50 ([1]; Human immunodeficiency virus 1) read?
**A.** 1.7 nM

**Q.** What about the CC50 [2, 13] of the same compound?
**A.** > 32000 nM

**Q.** And the EC50 [3, 9]?
**A.** 12.8 nM

**Q.** What about the EC50 [4, 10] of the same compound?
**A.** 1.1 nM

**Q.** And the EC50 [5, 11]?
**A.** 1 nM

**Q.** And the EC50 [6, 12]?
**A.** 0.7 nM

**Q.** With `COC(=O)N[C@H](C(=O)N[C@@H](Cc1ccc(-c2ccc(OC)nc2)cc1)[C@@H](O)C[C@@H](Cc1ccccc1F)C(=O)N[C@H]1[C@H](C)CCC[C@H]1O)C(C)(C)C` [Compound 96] as the compound, how does the EC50 ([1]; Human immunodeficiency virus 1) read?
**A.** 0.9 nM

**Q.** And the CC50 [2, 13]?
**A.** > 32000 nM

**Q.** And the EC50 [3, 9]?
**A.** 2 nM

**Q.** And the EC50 [4, 10]?
**A.** 0.7 nM

**Q.** And the EC50 [5, 11]?
**A.** 0.4 nM

**Q.** And the EC50 [6, 12]?
**A.** 0.5 nM

**Q.** With `COC(=O)N[C@H](C(=O)N[C@@H](Cc1ccc(-c2cnc(C(C)C)s2)cc1)[C@@H](O)C[C@@H](Cc1ccccc1F)C(=O)N[C@H]1c2ccccc2OC[C@H]1O)C(C)(C)C` [Compound 38] as the compound, how does the EC50 ([1]; Human immunodeficiency virus 1) read?
**A.** 7.1 nM

**Q.** What about the CC50 [2, 8] of the same compound?
**A.** 10000 nM

**Q.** What about the EC50 [3, 9] of the same compound?
**A.** 37.9 nM

**Q.** What about the EC50 [4, 10] of the same compound?
**A.** 4.4 nM

**Q.** What about the EC50 [5, 11] of the same compound?
**A.** 3.6 nM

**Q.** What about the EC50 [6, 12] of the same compound?
**A.** 2.6 nM

**Q.** For `CN(C)c1ccc(-c2ccc(C[C@H](NC(=O)O[C@H]3CO[C@H]4OCC[C@H]43)[C@@H](O)C[C@@H](Cc3ccccc3F)C(=O)N[C@H]3c4cc(F)ccc4OC[C@H]3O)cc2)cn1` [Compound 68], which EC50 [1] is on record?
**A.** 3 nM

**Q.** And the CC50 [7, 8]?
**A.** > 32000 nM

**Q.** And the EC50 [3]?
**A.** 9.4 nM

**Q.** What about the EC50 [4, 14] of the same compound?
**A.** 2.2 nM

**Q.** And the EC50 [5, 15]?
**A.** 1.5 nM

**Q.** And the EC50 [6, 16]?
**A.** 1.3 nM

**Q.** With `COC(=O)N[C@H](C(=O)N[C@@H](Cc1ccc(-c2ccc(OC)nc2)cc1)[C@@H](O)C[C@@H](Cc1ccccc1Cl)C(=O)N[C@H]1c2cc(Cl)ccc2OC[C@H]1O)C(C)(C)C` [Compound 58] as the compound, how does the EC50 [1] read?
**A.** 3.9 nM

**Q.** What about the CC50 [7, 13] of the same compound?
**A.** > 32000 nM

**Q.** What about the EC50 [3] of the same compound?
**A.** 13.3 nM

**Q.** What about the EC50 [4, 14] of the same compound?
**A.** 6 nM

**Q.** And the EC50 [5, 15]?
**A.** 2.5 nM

**Q.** What about the EC50 [6, 16] of the same compound?
**A.** 1.8 nM

**Q.** Which results are given for `COc1cccc(C[C@H](C[C@H](O)[C@H](Cc2ccc(-c3ccc(OC)nc3)cc2)NC(=O)O[C@H]2CO[C@H]3OCC[C@H]32)C(=O)N[C@H]2c3cc(Cl)ccc3OC[C@H]2O)c1` [Compound 70]?
**A.** EC50 [1]: 2.6 nM; CC50 [7, 13]: > 32000 nM; CC50 [7, 8]: > 32000 nM; EC50 [3]: 11.4 nM; EC50 [4, 14]: 1.6 nM; EC50 [5, 15]: 1.6 nM; EC50 [6, 16]: 1.2 nM
